In BigSolDB 2.1:

Oc1cc(O)c2cc(O)c(-c3cc(O)c(O)c(O)c3)[o+]c2c1.[Cl-]
solubility (mole fraction)
Conditions | 298.15 K | 303.15 K | 308.15 K | 313.15 K | 318.15 K | 323.15 K | 328.15 K | 333.15 K | 338.15 K | 343.15 K
in acetone | 5.5e-11 | 6.6e-11 | 7.1e-11 | 7.7e-11 | 8.7e-11 | 9.8e-11 | 1.06e-10 | 1.24e-10 | 1.35e-10 | 1.57e-10
in ethanol | 5.73e-08 | 6.13e-08 | 7.04e-08 | 7.7e-08 | 8.59e-08 | 9.8e-08 | 1.06e-07 | 1.23e-07 | 1.37e-07 | 1.56e-07
in methanol | 5.86e-07 | 6.62e-07 | 7.71e-07 | 8.77e-07 | 9.71e-07 | 1.05e-06 | 1.26e-06 | 1.4e-06 | 1.53e-06 | 1.69e-06
in water | 5.35e-07 | 6.39e-07 | 6.98e-07 | 7.87e-07 | 8.69e-07 | 1.02e-06 | 1.11e-06 | 1.24e-06 | 1.48e-06 | 1.64e-06
